The values that follow are results of earlier work, collected in US20070289889A1, “Biomarkers For The Prediction Of Drug-In Duced Diarrhea” (NOVARTIS AG, priority 2003, published 2007).

For the data set the following is noted: anticancer drugs targeted to inhibit the cell cycle, literature; cited from earlier work.

Consider `CCc1c2c(nc3ccc(OC(=O)N4CCC(N5CCCCC5)CC4)cc13)-c1cc3c(c(=O)n1C2)COC(=O)[C@]3(O)CC` [CPT-11], for which the drug-induced diarrhoea result is listed as “Diarrhoea has been reported”.
